Data: patent publication US9050341B2, “Methods of treating drug resistant and other tumors by administering 6,7-dialkoxy quinazoline derivatives” (NATCO PHARMA LIMITED, priority 2009, dated 2015)

How the values were obtained:
Experiment in all cases: KinomeScan kinase profiling
Type in all cases: binding
AMPK-alpha2 = biological target: T1, AMPK-alpha2 (Homo sapiens, UniProt P54646)
T1 construct: host or cells: E. coli host derived from BL21 (T7 phage lysate)
Outline: (§1)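 Kinases were expressed as T7 phage fusions in a BL21-derived E. coli host and the cleared lysates were used. Ligand beads were blocked with biotin and buffer (1% BSA, 0.05% Tween 20, 1 mM DTT). Compounds came from 40× DMSO stocks, and phage in the eluates was titred by qPCR.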

ASK1 = biological target: T2, ASK1 (Homo sapiens, UniProt Q99683)
T2 construct: purchased Ambit Biosciences Corp (KinomeScan); host or cells: E. coli host derived from the BL21 strain, T7 phage
Outline: as §1

CAMK1 = biological target: T3, CAMK1 (Homo sapiens, UniProt Q14012)
T3 construct: purchased Ambit Biosciences Corp (KinomeScan); host or cells: E. coli host derived from the BL21 strain, T7 phage
Outline: as §1

CAMK1G = biological target: T4, CAMK1G (Homo sapiens, UniProt Q96NX5)
T4 construct: purchased Ambit Biosciences Corp (KinomeScan); host or cells: E. coli host derived from the BL21 strain, T7 phage
Outline: as §1

EPHA4 = biological target: T5, EPHA4 (Homo sapiens, UniProt P54764)
T5 construct: host or cells: E. coli host derived from BL21, T7 phage lysate
Outline: as §1

ERK5 = biological target: T6, ERK5 (Homo sapiens, UniProt Q13164)
T6 construct: host or cells: E. coli host derived from BL21, T7 phage lysate
Outline: as §1

FLT4 = biological target: T7, FLT4 (Homo sapiens, UniProt P35916)
T7 construct: host or cells: E. coli host derived from BL21, infected with T7 phage
Outline: as §1

GSK3A = biological target: T8, GSK3A (Homo sapiens, UniProt P49840)
T8 construct: host or cells: E. coli host derived from BL21, infected with T7 phage
Outline: as §1

[1] = biological target: T9, JAK2 (JH1domain-catalytic) (Homo sapiens, UniProt O60674)
T9 construct: JAK2 (JH1domain-catalytic); host or cells: T7 phage in E. coli host derived from BL21
Outline: as §1

JNK3 = biological target: T10, JNK3 (Homo sapiens, UniProt P53779)
T10 construct: host or cells: T7 phage in E. coli host derived from BL21
Outline: as §1

MAP4K4 = biological target: T11, MAP4K4 (Homo sapiens, UniProt O95819)
T11 construct: host or cells: E. coli derived from BL21, infected with T7 phage
Outline: as §1

MAPKAPK5 = biological target: T12, MAPKAPK5 (Homo sapiens, UniProt Q8IW41)
T12 construct: host or cells: E. coli derived from BL21, infected with T7 phage
Outline: as §1

MARK2 = biological target: T13, MARK2 (Homo sapiens, UniProt Q7KZI7)
T13 construct: host or cells: E. coli derived from BL21, infected with T7 phage
Outline: as §1

MARK4 = biological target: T14, MARK4 (Homo sapiens, UniProt Q96L34)
T14 construct: host or cells: E. coli derived from BL21, infected with T7 phage
Outline: as §1

MST1 = biological target: T15, MST1 (Homo sapiens, UniProt Q13043)
T15 construct: host or cells: T7 phage in E. coli host derived from BL21
Outline: as §1

PAK1 = biological target: T16, PAK1 (Homo sapiens, UniProt Q13153)
T16 construct: host or cells: E. coli host derived from the BL21 strain, infected with T7 phage
Outline: as §1

PIK3CB = biological target: T17, PIK3CB (Homo sapiens, UniProt P42338)
T17 construct: host or cells: E. coli host derived from the BL21 strain, infected with T7 phage
Outline: as §1

PIM2 = biological target: T18, PIM2 (Homo sapiens, UniProt Q9P1W9)
T18 construct: purchased Ambit Biosciences Corp (KinomeScan); host or cells: E. coli host derived from BL21, infected with T7 phage
Outline: as §1

PRKCQ = biological target: T19, PRKCQ (Homo sapiens, UniProt Q04759)
T19 construct: purchased Ambit Biosciences Corp (KinomeScan); host or cells: E. coli host derived from BL21, infected with T7 phage
Outline: as §1

RIPK2 = biological target: T20, RIPK2 (Homo sapiens, UniProt O43353)
T20 construct: host or cells: E. coli host derived from BL21, T7 phage lysate
Outline: as §1

SIK2 = biological target: T21, SIK2 (Homo sapiens, UniProt Q9H0K1)
T21 construct: host or cells: E. coli host derived from the BL21 strain, T7 phage lysate
Outline: as §1

[2] = biological target: T22, TYK2 (JH1domain-catalytic) (Homo sapiens, UniProt P29597)
T22 construct: TYK2 (JH1domain-catalytic); purchased Ambit Biosciences Corp (KinomeScan); host or cells: E. coli host derived from the BL21 strain (T7 phage lysate)
Outline: as §1

p38-beta = biological target: T23, p38-beta (Homo sapiens, UniProt Q15759)
T23 construct: host or cells: E. coli host derived from the BL21 strain, infected with T7 phage
Outline: as §1

T23 sequence (Q15759 whole entry): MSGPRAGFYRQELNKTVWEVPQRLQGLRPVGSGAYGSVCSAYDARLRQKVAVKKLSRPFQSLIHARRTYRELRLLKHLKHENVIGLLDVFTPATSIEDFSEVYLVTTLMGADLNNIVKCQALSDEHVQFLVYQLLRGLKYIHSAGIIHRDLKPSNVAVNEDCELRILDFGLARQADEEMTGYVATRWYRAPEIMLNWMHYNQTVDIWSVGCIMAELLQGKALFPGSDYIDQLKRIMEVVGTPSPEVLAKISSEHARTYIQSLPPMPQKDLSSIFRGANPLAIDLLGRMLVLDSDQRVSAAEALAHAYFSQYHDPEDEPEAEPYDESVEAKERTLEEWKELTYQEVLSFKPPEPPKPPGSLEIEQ
T8 sequence (P49840 whole entry): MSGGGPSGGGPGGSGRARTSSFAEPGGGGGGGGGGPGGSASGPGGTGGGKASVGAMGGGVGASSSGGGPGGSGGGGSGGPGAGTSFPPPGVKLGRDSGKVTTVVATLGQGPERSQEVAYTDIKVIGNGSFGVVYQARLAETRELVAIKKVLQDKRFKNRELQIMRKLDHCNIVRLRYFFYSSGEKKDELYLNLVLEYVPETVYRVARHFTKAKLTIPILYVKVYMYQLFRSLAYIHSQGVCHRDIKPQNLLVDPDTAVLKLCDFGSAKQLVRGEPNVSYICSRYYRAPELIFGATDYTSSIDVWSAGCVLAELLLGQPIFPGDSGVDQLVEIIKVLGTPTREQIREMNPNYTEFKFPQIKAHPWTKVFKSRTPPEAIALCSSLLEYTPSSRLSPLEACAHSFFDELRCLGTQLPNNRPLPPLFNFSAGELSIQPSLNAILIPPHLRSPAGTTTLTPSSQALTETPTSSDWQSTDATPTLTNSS
T1 sequence (P54646 whole entry): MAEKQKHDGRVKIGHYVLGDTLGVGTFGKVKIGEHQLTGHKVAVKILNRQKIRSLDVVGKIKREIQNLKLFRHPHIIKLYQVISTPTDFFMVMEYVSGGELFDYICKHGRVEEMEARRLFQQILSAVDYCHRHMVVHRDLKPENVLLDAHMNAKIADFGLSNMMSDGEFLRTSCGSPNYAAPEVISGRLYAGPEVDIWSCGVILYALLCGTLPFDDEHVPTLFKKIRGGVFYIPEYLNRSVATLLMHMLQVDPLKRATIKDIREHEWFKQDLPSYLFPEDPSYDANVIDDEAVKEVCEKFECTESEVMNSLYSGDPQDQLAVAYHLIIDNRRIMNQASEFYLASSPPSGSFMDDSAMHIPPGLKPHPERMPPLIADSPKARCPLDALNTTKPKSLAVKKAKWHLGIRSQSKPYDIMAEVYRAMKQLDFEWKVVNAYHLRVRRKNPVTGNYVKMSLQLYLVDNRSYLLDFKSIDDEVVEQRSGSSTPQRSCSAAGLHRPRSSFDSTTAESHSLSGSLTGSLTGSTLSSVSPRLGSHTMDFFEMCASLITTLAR
T13 sequence (Q7KZI7 whole entry): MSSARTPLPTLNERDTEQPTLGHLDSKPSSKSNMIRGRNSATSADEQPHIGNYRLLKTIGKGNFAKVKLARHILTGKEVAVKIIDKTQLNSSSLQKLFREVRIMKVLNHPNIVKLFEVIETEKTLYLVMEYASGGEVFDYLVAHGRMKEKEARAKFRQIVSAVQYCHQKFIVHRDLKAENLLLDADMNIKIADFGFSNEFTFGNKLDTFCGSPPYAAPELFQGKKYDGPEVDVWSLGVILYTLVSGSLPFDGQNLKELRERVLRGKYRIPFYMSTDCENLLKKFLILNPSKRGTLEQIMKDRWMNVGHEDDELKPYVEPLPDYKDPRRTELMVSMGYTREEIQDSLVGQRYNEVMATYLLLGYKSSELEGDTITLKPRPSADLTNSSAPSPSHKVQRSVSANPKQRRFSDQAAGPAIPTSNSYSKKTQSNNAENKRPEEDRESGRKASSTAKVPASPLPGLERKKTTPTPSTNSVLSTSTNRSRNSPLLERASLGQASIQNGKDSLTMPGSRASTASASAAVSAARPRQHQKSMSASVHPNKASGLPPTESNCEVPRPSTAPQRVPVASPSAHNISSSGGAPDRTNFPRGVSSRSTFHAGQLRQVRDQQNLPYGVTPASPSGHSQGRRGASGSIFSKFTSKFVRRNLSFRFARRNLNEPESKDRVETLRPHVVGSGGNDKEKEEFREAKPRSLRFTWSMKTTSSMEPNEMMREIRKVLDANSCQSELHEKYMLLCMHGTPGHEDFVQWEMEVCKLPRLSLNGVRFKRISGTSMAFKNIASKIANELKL
T18 sequence (Q9P1W9 whole entry): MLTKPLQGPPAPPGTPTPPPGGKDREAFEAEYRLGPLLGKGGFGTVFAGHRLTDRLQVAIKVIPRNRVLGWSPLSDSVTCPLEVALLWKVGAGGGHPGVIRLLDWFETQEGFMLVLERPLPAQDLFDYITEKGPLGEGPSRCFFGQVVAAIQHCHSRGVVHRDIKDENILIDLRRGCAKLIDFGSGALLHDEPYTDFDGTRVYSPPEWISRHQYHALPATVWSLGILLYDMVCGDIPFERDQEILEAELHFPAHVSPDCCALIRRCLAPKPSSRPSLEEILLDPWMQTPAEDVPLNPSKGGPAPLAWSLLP
T7 sequence (P35916 25-1363): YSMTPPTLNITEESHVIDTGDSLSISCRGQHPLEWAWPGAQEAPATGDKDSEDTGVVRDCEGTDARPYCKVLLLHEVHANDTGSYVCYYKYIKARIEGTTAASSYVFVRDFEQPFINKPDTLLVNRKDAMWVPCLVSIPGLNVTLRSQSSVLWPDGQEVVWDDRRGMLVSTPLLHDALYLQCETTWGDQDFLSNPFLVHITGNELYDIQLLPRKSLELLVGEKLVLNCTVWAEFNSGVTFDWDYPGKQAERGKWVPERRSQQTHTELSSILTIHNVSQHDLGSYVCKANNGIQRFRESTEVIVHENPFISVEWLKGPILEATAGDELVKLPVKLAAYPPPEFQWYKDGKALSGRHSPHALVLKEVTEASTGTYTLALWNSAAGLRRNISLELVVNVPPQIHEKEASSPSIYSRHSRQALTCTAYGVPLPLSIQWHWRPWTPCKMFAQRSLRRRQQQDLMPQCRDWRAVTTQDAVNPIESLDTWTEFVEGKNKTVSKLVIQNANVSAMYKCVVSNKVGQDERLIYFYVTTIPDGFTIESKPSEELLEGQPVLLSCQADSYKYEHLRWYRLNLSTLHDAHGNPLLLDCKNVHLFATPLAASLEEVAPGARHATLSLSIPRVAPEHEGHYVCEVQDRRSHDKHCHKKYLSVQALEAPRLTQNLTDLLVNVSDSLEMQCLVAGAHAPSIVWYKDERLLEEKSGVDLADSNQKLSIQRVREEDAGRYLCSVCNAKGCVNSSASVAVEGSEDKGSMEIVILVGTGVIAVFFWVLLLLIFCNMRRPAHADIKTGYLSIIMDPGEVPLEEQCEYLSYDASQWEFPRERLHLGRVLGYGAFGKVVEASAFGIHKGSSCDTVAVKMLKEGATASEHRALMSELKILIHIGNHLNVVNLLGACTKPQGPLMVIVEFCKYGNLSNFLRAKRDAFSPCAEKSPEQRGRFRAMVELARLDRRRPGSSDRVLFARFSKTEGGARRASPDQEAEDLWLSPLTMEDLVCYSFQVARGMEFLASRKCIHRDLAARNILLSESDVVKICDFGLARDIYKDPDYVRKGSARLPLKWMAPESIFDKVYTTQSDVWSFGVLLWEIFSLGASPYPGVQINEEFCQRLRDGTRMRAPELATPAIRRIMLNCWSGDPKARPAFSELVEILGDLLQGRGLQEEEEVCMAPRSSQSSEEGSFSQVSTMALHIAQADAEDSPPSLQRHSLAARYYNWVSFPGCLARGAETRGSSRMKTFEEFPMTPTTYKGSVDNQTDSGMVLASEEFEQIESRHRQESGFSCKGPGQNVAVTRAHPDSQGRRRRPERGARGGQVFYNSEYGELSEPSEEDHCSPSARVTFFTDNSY
T20 sequence (O43353 whole entry): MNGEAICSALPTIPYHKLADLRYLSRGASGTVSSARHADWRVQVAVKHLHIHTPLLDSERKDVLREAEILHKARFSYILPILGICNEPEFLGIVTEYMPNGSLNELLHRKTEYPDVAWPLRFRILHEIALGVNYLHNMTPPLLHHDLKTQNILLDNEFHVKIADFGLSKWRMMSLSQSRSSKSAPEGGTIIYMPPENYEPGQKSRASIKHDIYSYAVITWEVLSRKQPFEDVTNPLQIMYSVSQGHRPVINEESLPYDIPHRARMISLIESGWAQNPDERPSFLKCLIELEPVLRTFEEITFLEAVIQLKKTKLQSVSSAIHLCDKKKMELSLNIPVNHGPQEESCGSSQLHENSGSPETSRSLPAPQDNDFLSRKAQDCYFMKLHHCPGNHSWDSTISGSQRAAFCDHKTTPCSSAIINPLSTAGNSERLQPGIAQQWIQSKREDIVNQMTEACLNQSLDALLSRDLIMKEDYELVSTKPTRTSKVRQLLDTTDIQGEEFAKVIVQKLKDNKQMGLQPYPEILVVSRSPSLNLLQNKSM
T12 sequence (Q8IW41 whole entry): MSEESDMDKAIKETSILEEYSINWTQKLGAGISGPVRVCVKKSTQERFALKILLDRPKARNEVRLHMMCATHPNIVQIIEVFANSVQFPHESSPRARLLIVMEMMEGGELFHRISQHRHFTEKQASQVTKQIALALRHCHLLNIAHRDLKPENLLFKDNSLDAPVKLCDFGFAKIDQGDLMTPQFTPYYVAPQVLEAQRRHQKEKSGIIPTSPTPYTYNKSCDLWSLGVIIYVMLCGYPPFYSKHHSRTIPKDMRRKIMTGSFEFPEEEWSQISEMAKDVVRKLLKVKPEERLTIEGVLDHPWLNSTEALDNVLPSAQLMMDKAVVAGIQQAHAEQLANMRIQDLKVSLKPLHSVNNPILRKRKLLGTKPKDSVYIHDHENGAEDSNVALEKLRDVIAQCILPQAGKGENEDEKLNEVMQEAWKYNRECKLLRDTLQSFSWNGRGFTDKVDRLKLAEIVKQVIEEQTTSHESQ

With `C#Cc1cccc(Nc2ncnc3cc(OC)c(OCCCN4CCOCC4)cc23)c1` [NRC-2694, N-(3-ethylnylphenyl)-7-methoxy-6-[3-(4-morpholinyl)propoxy]-4-quinazolinamine] the “% Ctrl @ 10000 nM” value (AMPK-alpha2) was 61 % Ctrl, the “% Ctrl @ 10000 nM” value (ASK1) was 100 % Ctrl and the “% Ctrl @ 10000 nM” value (CAMK1) was 65 % Ctrl. The “% Ctrl @ 10000 nM” value (CAMK1G) was 75 % Ctrl, the “% Ctrl @ 10000 nM” value (EPHA4) was 64 % Ctrl and the “% Ctrl @ 10000 nM” value (ERK5) was 90 % Ctrl. The “% Ctrl @ 10000 nM” value (FLT4) was 66 % Ctrl, the “% Ctrl @ 10000 nM” value (GSK3A) was 75 % Ctrl and the “% Ctrl @ 10000 nM” value [1] was 38 % Ctrl. The “% Ctrl @ 10000 nM” value (JNK3) was 77 % Ctrl, the “% Ctrl @ 10000 nM” value (MAP4K4) was 20 % Ctrl and the “% Ctrl @ 10000 nM” value (MAPKAPK5) was 79 % Ctrl. For the same compound, the “% Ctrl @ 10000 nM” value (MARK2) was 70 % Ctrl, the “% Ctrl @ 10000 nM” value (MARK4) was 100 % Ctrl and the “% Ctrl @ 10000 nM” value (MST1) was 100 % Ctrl. For the same compound, the “% Ctrl @ 10000 nM” value (PAK1) was 74 % Ctrl, the “% Ctrl @ 10000 nM” value (PIK3CB) was 100 % Ctrl and the “% Ctrl @ 10000 nM” value (PIM2) was 83 % Ctrl. For the same compound, the “% Ctrl @ 10000 nM” value (PRKCQ) was 83 % Ctrl, the “% Ctrl @ 10000 nM” value (RIPK2) was 2.4 % Ctrl and the “% Ctrl @ 10000 nM” value (SIK2) was 21 % Ctrl. For the same compound, the “% Ctrl @ 10000 nM” value [2] was 97 % Ctrl and the “% Ctrl @ 10000 nM” value (p38-beta) was 100 % Ctrl.
